The record followed here is patent US9975911B2, “Antibacterial compounds and biological applications thereof” (LABORATOIRE BIODIM, priority 2012, dated 2018).

Assay [1] relates to E. coli C7 (018:K1:H7) LPS heptosylation. As to the kind of experiment: Inhibition of E. coli C7 (018:K1:H7) LPS biosynthesis (LPS gel electrophoresis, Re-LPS band). Type of assay: cell-based. To be noted: read-out: EC50 of E. coli C7 LPS heptosylation inhibition. The protocol: Inhibition of E. coli C7 (018:K1:H7) LPS Biosynthesis:
The inner core contains several heptose residues. An inhibitor of the LPS heptosylation pathway should therefore reduce dramatically the size of LPS from full-length to the so-called ‘Re-LPS’ limited to lipid A branched with 2 Kdo residues.
The effect of heptosylation inhibitors on E. coli LPS was assessed as described below. The compounds to be tested were prepared in deionised water/DMSO (50/50) solutions and added (25 μL) in sterile culture microtubes. The strain used in this study was E. coli C7 (018:K1:H7). The bacteria were isolated on tryptic soy agar (TSA) overnight. Isolated colonies were cultured in 10 mL of Luria-Bertani medium (LB) at 37° C. up to an optical density (OD) of typically 0.15. These exponentially growing bacteria were finally diluted to 5e5 cfu/mL and added in each well (225 μL) for incubation with the compounds at 37° C. for approximately 5 hours, up to an optical density of ≈0.2-0.4. Some test compounds e.g. phospho-sugars required Glucose-6-Phosphate (G6P, from Sigma) to be added in the culture medium in order to activate their active transport into the bacterial cytosol via the phospho-sugar transporter UhpT. This was achieved by adding in the culture tube 2.5 μL of a 10 mM water solution of G6P (100 μM final concentration).
Bacterial cultures were normalized via OD determination, pelleted and washed with 1 mL Phosphate-Buffer-Saline (PBS). The pellets were then denatured for 10 min at 95-100° C. in 50 μL of Sodium dodecyl sulphate 0.2% (SDS), beta-mercaptoethanol 1%, Glycerol 36%, Tris pH 7.4 30 mM and bromophenol blue 0.001%. Samples were cooled down to room temperature, supplemented with 1.5 μl of proteinase K at 20 mg/mL, incubated for 1 hour at 55° C. and centrifuged for […] at 13,000 rpm at 25° C. The resulting supernatant, containing LPS, was finally analysed by SDS-PAGE electrophoresis.
LPS SDS-PAGE Electrophoresis:
Polyacrylamide gels (16%/4% acrylamide for separation and concentration respectively) were prepared, loaded with 8 μL of LPS extracts and migrated.
Gels were incubated overnight in 5% acetic acid/40% ethanol/deionised water, treated by 1% periodic acid/5% acetic acid for 15 min, washed 4 times for 10 min in deionised water and finally incubated for 18 min in the dark in a silver nitrate solution composed of 56 mL NaOH 0.1N, 4 mL ammoniac 33%, 45 mL AgNO3 5% (Tsai and Frasch) and 195 mL deionised water. Gels were then washed extensively in deionised water for 30 min and incubated for 10-15 min (up to LPS bands apparition) in the revelation mix composed of 300 mL deionised water, 300 μL formaldehyde 36.5% (Fluka) and 100 μL citric acid 2.3M. The revelation was stopped by incubating the gels in acetic acid 10% for 5 min. Gels were finally washed in deionised water, numerized with a Samsung PL51 camera and analysed by ImageJ software. The percentage of inhibition of LPS heptosylation was defined as the relative area of the Re-LPS band compared to the cumulated areas of Re-LPS and Core-LPS bands.

In the next assay the target is GmhA of E. coli (Escherichia coli, UniProt P63224). Nature of the assay: Inhibition of the enzymatic activity of GmhA (luminescent assay). It is filed as biochemical. Here is the method:
Inhibition of the Enzymatic Activity of GmhA (Luminescent Assay):
The assay buffer “AB” contained 50 mM Hepes pH7.5, 1 mM MnCl2, 25 mM KCl, 0.012% Triton-X100, 1 mM dithiothreitol (DTT) and 0.1 μM Myelin basic protein (MBP). The following components were added in a white polystyrene Costar plate up to a final volume of 30 μL: 10 μL inhibitor dissolved in DMSO/water 50/50, and 20 μL GmhA of E. coli in AB. After 30 min of pre-incubation at room temperature, 30 μL of Substrates mix in AB were added in each well to a final volume of 60 μL. This reaction mixture was then composed of 2 nM GmhA, 3 μM sedoheptulose-7-phosphate (Sigma), 3 μM ATP (Sigma) and 50 nM HldE of E. coli in assay buffer. After 30 minutes of incubation at room temperature, 100 μL of the revelation mix were added to a final volume of 160 μL, including the following constituents at the respective final concentrations: 10000 light units/mL luciferase (Sigma), 20 μM D-luciferin (Sigma), 100 μM N-acetylcysteamine (Aldrich). Luminescence intensity was immediately measured on Luminoskan (Thermofisher) and converted into inhibition percentages. For IC50 determinations, the inhibitor was tested at 6 to 10 different concentrations, and the related inhibitions were fitted to a classical Langmuir equilibrium model using XLFIT (IDBS).

The subject of a further assay is E. coli C7 (O18:K1:H7). Nature of the assay: Combination with antibiotics on E. coli C7 (MIC of the antibiotics). The settings on record: in the presence of 100 μM G6P; for MIC of the antibiotic alone: without test compound. It is filed as cell-based. The protocol: Combination with Antibiotics on E. coli C7 (018:K1:H7):
The compound to be tested was diluted in 50 mM HEPES buffer pH 7.4 from 10 mM stock solution. 5 μL of compound dilution or buffer were distributed in a sterile clear round bottom 96-well polystyrene microplate (Corning). 5 μL of serial 2-fold dilutions of reference antibiotics (Erythromycin (Fluka), Rifampicin (Fluka), or Synercid® (Monarch Pharmaceuticals)) in DMSO were added. An exponentially growing preculture of E. coli C7 (O18:K1:H7) in LB was diluted to 1e4 cfu/mL and supplemented with 100 μM G6P, and 90 μL of this suspension were added to the microplates. After overnight incubation at 37° C., the minimal inhibitory concentration (MIC) of the antibiotics were determined for each test compound concentration, as the lowest antibiotic concentration for which no bacterial pellet is visible without magnification.

Setting [2] is: test compound at concentrations <1 mM.

Like-named read-outs stand apart in the source and are kept apart here.

Chain of GmhA of E. coli (P63224 whole entry): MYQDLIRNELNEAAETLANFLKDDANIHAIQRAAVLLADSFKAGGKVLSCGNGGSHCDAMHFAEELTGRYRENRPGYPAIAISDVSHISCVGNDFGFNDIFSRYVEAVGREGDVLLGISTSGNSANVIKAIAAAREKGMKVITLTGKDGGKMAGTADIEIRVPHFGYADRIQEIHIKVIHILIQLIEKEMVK

Take `O=CN(O)C[C@H](O)[C@H](O)[C@H](O)CCP(=O)(O)O` [Example 3, [6-(Formyl-hydroxy-amino)-(3R,4R,5S)-3,4,5-trihydroxy-hexyl]-phosphonic acid]: the half-maximal effective concentration (EC50) (usually the concentration giving half of the maximal effect) in assay [1] (Escherichia coli) was found to be 18 µM. Moreover, the IC50 (as a rule, the concentration at which inhibition is half-maximal) at GmhA of E. coli (IC50 GmhA E. coli) was 3 nM.
Turning to `O=CN(O)C(CO)[C@H](O)[C@H](O)[C@H](O)CCP(=O)(O)O` (single isomer, unassigned) [Example 8], the half-maximal effective concentration (EC50) in assay [1] came out at 180 µM. The concentration for half-maximal inhibition (IC50) on GmhA of E. coli (read-out: IC50 GmhA E. coli) worked out at 27 nM.
Consider `CO[C@H]1/C=C/O[C@@]2(C)Oc3c(C)c(O)c4c(O)c(c(/C=N/N5CCN(C)CC5)c(O)c4c3C2=O)NC(=O)/C(C)=C\C=C\[C@H](C)[C@H](O)[C@@H](C)[C@@H](O)[C@@H](C)[C@H](OC(C)=O)[C@@H]1C` [rifampicin, Rifampicin, reference compound], for which, in the assay on E. coli C7 (O18:K1:H7), the “MIC of the antibiotic alone” value worked out at 4 µg/mL.
Turning to `O=CN(O)C(CO)[C@H](O)[C@H](O)[C@H](O)CCP(=O)(O)O` (single isomer, unassigned) [Example 7], the 50% effective concentration (EC50) in assay [1] (Escherichia coli) stood at 220 µM. The IC50 at GmhA of E. coli (read-out: IC50 GmhA E. coli) came out at 46 nM.
Turning to `O=CN(O)C[C@H](O)[C@H](O)[C@H](O)COP(=O)([O-])O.[Na+]` [Example 2, N-hydroxy-N-formylamino-1-deoxy-D-ribitol-5-phosphate], in the assay on E. coli C7 (O18:K1:H7) (setting [2]), the “MIC of Synercid in combination with the compound” value is 8 µg/mL, the “MIC of erythromycin in combination with the compound” value is 1 µg/mL, the “MIC of rifampicin in combination with the compound” value amounted to 0.25 µg/mL and the “potentiation of Synercid” value is on record as 16 fold. Besides, in the assay with E. coli C7 (O18:K1:H7) (setting [2]), the potentiation of erythromycin worked out at 32 fold and the potentiation of rifampicin is given as 16 fold. Further, the EC50 in assay [1] (Escherichia coli) turned out to be 18 µM. At GmhA of E. coli (read-out: IC50 GmhA E. coli), the IC50 was determined as 2.4 nM.
As to `O=CN(O)C[C@H](O)[C@H](O)[C@H](O)CC(F)P(=O)(O)O` (stereo partly drawn) [Example 9, [1-Fluoro-6-(formyl-hydroxy-amino)-(3R,4R,5S)-3,4,5-trihydroxy-hexyl]-phosphonic acid], in assay [1] (Escherichia coli), the EC50 came out at 76 µM. On GmhA of E. coli (IC50 GmhA E. coli), this compound yielded an IC50 of 15 nM.
As for `CC[C@H]1OC(=O)[C@H](C)[C@@H](O[C@H]2C[C@@](C)(OC)[C@@H](O)[C@H](C)O2)[C@H](C)[C@@H](O[C@@H]2O[C@H](C)C[C@H](N(C)C)[C@H]2O)[C@](C)(O)C[C@@H](C)C(=O)[C@H](C)[C@@H](O)[C@]1(C)O` [erythromycin, Erythromycin, reference compound], the “MIC of the antibiotic alone” value in the assay with E. coli C7 (O18:K1:H7) was 32 µg/mL.
